Results taken from patent US9073940B2, “Tricyclic pyrazol amine derivatives” (MERCK SERONO SA, priority 2009, dated 2015).
pIC50: −log10 of the molar value.

These molecules were tested on 4 PI3K isoforms (Human recombinant GST-PI3K) (assay: PI3K scintillation proximity assay, best IC50 obtained with the four isoforms (alpha, beta, delta, gamma)). Conditions: best IC50 obtained with the four isoforms of PI3K; read-out: Best potency measured on the 4 PI3K isoforms.
Format: biochemical

Row | SMILES | pIC50
1 | CC(C)CCOC1CCN(Cc2ccc(-n3nc(C(=O)N4CCOCC4)c4c3-c3ccccc3S(=O)(=O)C4)cc2)C1 (stereo not shown) [Example 233, 1-(4-{[3-(3-Methylbutoxy)pyrrolidin-1-yl]methyl}phenyl)-3-(morpholin-4-ylcarbonyl)-1,4-dihydrothiochromeno[4,3-c]pyrazole 5,5-dioxide] | 6.78
2 | O=C(c1nn(-c2ccccc2)c2c1CS(=O)(=O)c1ncccc1-2)N1CCOCC1 [Example 132, 3-(Morpholin-4-ylcarbonyl)-1-phenyl-1,4-dihydropyrazolo[3′,4′:4,5]thiopyrano[2,3-b]pyridine 5,5-dioxide] | 6.28
3 | O=C(c1cccc(-n2nc(C(=O)N3CCOCC3)c3c2-c2ccccc2S(=O)(=O)C3)c1)N1CCCC(O)C1 (stereo not shown) [Example 144, 1-{3-[3-(Morpholin-4-ylcarbonyl)-5,5-dioxidothiochromeno[4,3-c]pyrazol-1 (4H)-yl]benzoyl}piperidin-3-ol] | 6.46
4 | O=C(c1nn(C2CCCN(CCC3CCOCC3)C2)c2c1CS(=O)(=O)c1ccccc1-2)N1CCOCC1 (stereo not shown) [Example 224, 3-(Morpholin-4-ylcarbonyl)-1-{1-[2-(tetrahydro-2H-pyran-4-yl)ethyl]piperidin-3-yl)-1,4-dihydrothiochromeno[4,3-c]pyrazole 5,5-dioxide] | 7.27
5 | N#Cc1cccc(-n2nc(C(=O)N3CCOCC3)c3c2-c2ccccc2S(=O)(=O)C3)c1 [Example 68] | 6.42
6 | COC1CCN(C(=O)c2cccc(-n3nc(C(=O)N4CCOCC4)c4c3-c3ccccc3S(=O)(=O)C4)c2)CC1 [Example 142, 1-{3-[(4-Methoxypiperidin-1-yl)carbonyl]phenyl}-3-(morpholin-4-ylcarbonyl)-1,4-dihydrothiochromeno[4,3-c]pyrazole 5,5-dioxide] | 6.52
7 | CC1(C)CCCC(n2nc(C(=O)N3CCOCC3)c3c2-c2ccccc2S(=O)(=O)C3)C1 (stereo not shown) [Example 171, 1-(3,3-Dimethylcyclohexyl)-3-(morpholin-4-ylcarbonyl)-1,4-dihydrothiochromeno[4,3-c]pyrazole 5,5-dioxide] | 6.30
8 | COc1cccc(Cn2nc(C(=O)N3CCOCC3)c3c2-c2ccccc2S(=O)(=O)C3)c1 [Example 232, 1-(3-Methoxybenzyl)-3-(morpholin-4-ylcarbonyl)-1,4-dihydrothiochromeno[4,3-c]pyrazole 5,5-dioxide] | 5.93
9 | O=C(c1n[nH]c2c1CS(=O)(=O)c1ccccc1-2)N1CCOCC1 [Example 3, 3-(morpholin-4-ylcarbonyl)-2,4-dihydrothiochromeno[4,3-c]pyrazole 5,5-dioxide] | 5.54
10 | O=C(c1nn(C2CCN(CCC3CCOCC3)C2)c2c1CS(=O)(=O)c1ccccc1-2)N1CCOCC1 (stereo not shown) [Example 270, 3-(Morpholin-4-ylcarbonyl)-1-{1-[2-(tetrahydro-2H-pyran-4-yl)ethyl]pyrrolidin-3-yl}-1,4-dihydrothiochromeno[4,3-c]pyrazole 5,5-dioxide] | 6.55
11 | O=C(c1nn(C2CCCN(CCN3CCOCC3)C2)c2c1CS(=O)(=O)c1ccccc1-2)N1CCOCC1 (stereo not shown) [Example 175, 3-(Morpholin-4-ylcarbonyl)-1-[1-(2-morpholin-4-ylethyl)piperidin-3-yl]-1,4-dihydrothiochromeno[4,3-c]pyrazole 5,5-dioxide] | 6.91
12 | COc1cccc(-n2nc(C(=O)N3CCOCC3)c3c2-c2ccccc2S(=O)(=O)C3)c1 [Example 9, 1-(3-methoxyphenyl)-3-(morpholin-4-ylcarbonyl)-1,4-dihydrothiochromeno[4,3-c]pyrazole 5,5-dioxide] | 5.88
13 | O=C(c1nn(C2CCCN(Cc3ccccc3)C2)c2c1CS(=O)(=O)c1ccccc1-2)N1CCOCC1 (stereo not shown) [Example 174, 1-(1-Benzylpiperidin-3-yl)-3-(morpholin-4-ylcarbonyl)-1,4-dihydrothiochromeno[4,3-c]pyrazole 5,5-dioxide] | 6.27
14 | O=C(c1nn(C2CCCN(CCC3CCOCC3)C2)c2c1CS(=O)(=O)c1c(F)cccc1-2)N1CCOCC1 (stereo not shown) [Example 280, 6-Fluoro-3-(morpholin-4-ylcarbonyl)-1-{1-[2-(tetrahydro-2H-pyran-4-yl)ethyl]piperidin-3-yl)-1,4-dihydrothiochromeno[4,3-c]pyrazole 5,5-dioxide] | 7.66
15 | CS(=O)(=O)N1CCCC(n2nc(C(=O)N3CCOCC3)c3c2-c2ccccc2S(=O)(=O)C3)C1 (stereo not shown) [Example 135, 1[1-(Methylsulfonyl)piperidin-3-yl]-3-(morpholin-4-ylcarbonyl)-1,4-dihydrothiochromeno[4,3-c]pyrazole 5,5-dioxide] | 6.00
16 | COCCn1nc(C(=O)N2CCOCC2)c2c1-c1ccccc1S(=O)(=O)C2 [Example 53, 1-(2-methoxyethyl)-3-(morpholin-4-ylcarbonyl)-1,4-dihydrothiochromeno[4,3-c]pyrazole 5,5-dioxide] | 5.89
17 | O=C(c1nn(C2CCN(C3CCOCC3)C2)c2c1CS(=O)(=O)c1c(F)cccc1-2)N1CCOCC1 (stereo not shown) [Example 298, 6-Fluoro-3-(morpholin-4-ylcarbonyl)-1-[1-(tetrahydro-2H-pyran-4-yl)pyrrolidin-3-yl]-1,4-dihydrothiochromeno[4,3-c]pyrazole 5,5-dioxide] | 7.54
18 | O=C(c1nn(-c2cccc(-c3cccnc3)c2)c2c1CS(=O)(=O)c1ccccc1-2)N1CCOCC1 [Example 198, 3-(Morpholin-4-ylcarbonyl)-1-(3-pyridin-3-ylphenyl)-1,4-dihydrothiochromeno[4,3-c]pyrazole 5,5-dioxide] | 6.55
19 | O=C(c1cccc(-n2nc(C(=O)N3CCOCC3)c3c2-c2ccccc2S(=O)(=O)C3)c1)N1CCCC(CO)C1 (stereo not shown) [Example 145, (1-{3-[3-(Morpholin-4-ylcarbonyl)-5,5-dioxidothiochromeno[4,3-c]pyrazol-1 (4H)-yl]benzoyl}piperidin-3-yl)methanol] | 6.30
20 | O=C(Nc1cccnc1)c1cccc(-n2nc(C(=O)N3CCOCC3)c3c2-c2ccccc2S(=O)(=O)C3)c1 [Example 149, 3-[3-(Morpholin-4-ylcarbonyl)-5,5-dioxidothiochromeno[4,3-c]pyrazol-1(4H)-yl]-N-pyridin-3-ylbenzamide] | 6.03
21 | O=C(c1nn(-c2cccc(Br)c2)c2c1CS(=O)(=O)c1ccccc1-2)N1CCOCC1 [Example 25, 1-(3-bromophenyl)-3-(morpholin-4-ylcarbonyl)-1,4-dihydrothiochromeno[4,3-c]pyrazole 5,5-dioxide] | 6.21
22 | O=C(c1nn(C2CCN(CCn3ccnc3)C2)c2c1CS(=O)(=O)c1ccccc1-2)N1CCOCC1 (stereo not shown) [Example 288, 1-{1-[2-(1H-Imidazol-1-yl)ethyl]pyrrolidin-3-yl}-3-(morpholin-4-ylcarbonyl)-1,4-dihydrothiochromeno[4,3-c]pyrazole 5,5-dioxide] | 6.78

Continued, values first:

Row | pIC50 | SMILES
23 | 7.89 | O=C(c1nn([C@H]2CCCN(CC3CCOCC3)C2)c2c1CS(=O)(=O)c1ncccc1-2)N1CCOCC1 (single isomer, unassigned) [Example 376, 3-(morpholin-4-ylcarbonyl)-1-[1-(tetrahydro-2H-pyran-4-ylmethyl)piperidin-3-yl]1,4-dihydropyrazolo[3′,4′:4,5]thiopyrano[2,3-b]pyridine 5,5-dioxide]
24 | 5.10 | O=C(c1nn([C@@H]2CCCN(CCF)C2)c2c1CS(=O)(=O)c1ccccc1-2)N1CCOCC1 (single isomer, unassigned) [Example 366]
25 | 7.17 | O=C(c1nn(C2CCCN(C3COC3)C2)c2c1CS(=O)(=O)c1ccccc1-2)N1CCOCC1 (stereo not shown) [Example 415, 3-(Morpholin-4-ylcarbonyl)-1-(1-oxetan-3-ylpiperidin-3-yl)-1,4-dihydrothiochromeno[4,3-c]pyrazole 5,5-dioxide]
26 | 7.60 | COC1CCN(CCN2CCC[C@H](n3nc(C(=O)N4CCOCC4)c4c3-c3ccccc3S(=O)(=O)C4)C2)C1 (stereo in doubt) [Example 439, 1-{1-[2-(3-methoxypyrrolidin-1-yl)ethyl]piperidin-3-yl}-3-(morpholin-4-ylcarbonyl)-1,4-dihydrothiochromeno[4,3-c]pyrazole 5,5-dioxide]
27 | 7.14 | CC1(C)CN(CCN2CCC[C@H](n3nc(C(=O)N4CCOCC4)c4c3-c3ccccc3S(=O)(=O)C4)C2)CCO1 (single isomer, unassigned) [Example 370, 1-{1-[2-(2,2-dimethylmorpholin-4-yl)ethyl]piperidin-3-yl}-3-(morpholin-4-ylcarbonyl)-1,4-dihydrothiochromeno[4,3-c]pyrazole 5,5-dioxide]
28 | 7.24 | O=C(c1nn(C2CCN(CC3CCOC3)C2)c2c1CS(=O)(=O)c1c(F)cccc1-2)N1CCOCC1 (stereo not shown) [Example 304, 6-Fluoro-3-(morpholin-4-ylcarbonyl)-1-[1-(tetrahydrofuran-3-ylmethyl)pyrrolidin-3-yl]-1,4-dihydrothiochromeno[4,3-c]pyrazole 5,5-dioxide]
29 | 5.01 | O=C(c1nn(C2CCOCC2)c2c1C(F)S(=O)(=O)c1ccccc1-2)N1CCOCC1 (stereo not shown) [Example 316, 4-Fluoro-3-(morpholin-4-ylcarbonyl)-1-(tetrahydro-2H-pyran-4-yl)-1,4-dihydrothiochromeno[4,3-c]pyrazole 5,5-dioxide]
30 | 5.19 | O=C(c1nn(-c2ccccc2)c2c1CS(=O)(=O)c1ccccc1-2)N1CCOC(CO)C1 (stereo not shown) [Example 333, {4-[(5,5-Dioxido-1-phenyl-1,4-dihydrothiochromeno[4,3-c]pyrazol-3-yl)carbonyl]morpholin-2-yl}methanol]
31 | 7.11 | O=C(c1nn(C2CCN(C3CCOCC3)C2)c2c1CS(=O)(=O)c1ccccc1-2)N1CCOCC1 (stereo not shown) [Example 300, 3-(Morpholin-4-ylcarbonyl)-1-[1-(tetrahydro-2H-pyran-4-yl)pyrrolidin-3-yl]-1,4-dihydrothiochromeno[4,3-c]pyrazole 5,5-dioxide]
32 | 6.14 | COCCOc1cccc(-n2nc(C(=O)N3CCOCC3)c3c2-c2ccccc2S(=O)(=O)C3)c1 [Example 341, 1-[3-(2-Methoxyethoxy)phenyl]-3-(morpholin-4-ylcarbonyl)-1,4-dihydrothiochromeno[4,3-c]pyrazole 5,5-dioxide]
33 | 5.17 | O=C(c1nn(-c2cccc(-c3ncon3)c2)c2c1CS(=O)(=O)c1ccccc1-2)N1CCOCC1 [Example 324]

Same assay, conditions: inhibition at 20 μM

Row | SMILES | Best potency measured on the 4 PI3K isoforms, % inh @20 μM
34 | O=C(c1nn(-c2ccccc2)c2c1CS(=O)(=O)c1c(CN3CCCCC3)cccc1-2)N1CCOCC1 [Example 319] | 33% inh @20 μM
